Experimental data taken from article PMC10057528, “Trypanosoma cruzi Sirtuin 2 as a Relevant Druggable Target: New Inhibitors Developed by Computer-Aided Drug Design” (Pharmaceuticals, 2023).
Where two headings read alike, the source gives them in different places.

How the values were obtained:
[1] = tested on: T. cruzi Sir2-related protein 1 (TcSir2rp1); parameters: method as in PMID 29357372, PMID 19937668; details: cited from earlier work
TcSir2 = target: T1, TcSir2 (Trypanosoma cruzi, UniProt Q4DP02); experiment: Recombinant TcSir2 activity assay (fluorescent peptide deacetylation); assay type: biochemical; details: for IC50: recombinant TcSir2 0.1 μM, 10 μM peptide, 25 μM NAD+, 37 °C, ND = values measured but did not converge IC50 significantly
T1 sequence (Q4DP02 1-359): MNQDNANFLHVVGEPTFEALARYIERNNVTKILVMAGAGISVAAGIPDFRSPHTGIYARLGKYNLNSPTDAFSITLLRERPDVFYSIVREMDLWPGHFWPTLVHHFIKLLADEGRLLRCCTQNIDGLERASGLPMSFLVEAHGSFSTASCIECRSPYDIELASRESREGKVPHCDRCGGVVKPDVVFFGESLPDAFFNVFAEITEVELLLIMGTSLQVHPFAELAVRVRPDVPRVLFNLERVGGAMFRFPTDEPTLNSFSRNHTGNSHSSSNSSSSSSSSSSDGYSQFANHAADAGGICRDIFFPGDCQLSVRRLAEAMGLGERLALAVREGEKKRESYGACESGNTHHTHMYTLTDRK
Excerpt: The peptide substrate (Abz-Gly-Pro-AcetylLys-Ser-Gln-EDDnp, where Abz stands for ortho-aminobenzoic), based on the TcSir2 specificity, was acquired from AminoTech (São Paulo, Brazil). This substrate contains an acetyl-Lys, which is available for trypsin cleavage only when the TcSir2 deacetylates the lysine side chain. After peptide deacetylation and cleavage, the fluorescent moiety (Abz) and the EDDnp suppressor group (N-[2,4-dinitrophenyl] ethylenediamine) are separated, and fluorescence (420 nm) can occur upon excitation at 320 nm. The TcSir2 activity assays were performed at 37 °C in a 25 mM Tris-HCl buffer with pH 8 and containing 137 mM NaCl, 2.7 mM KCl, and 1 mM MgCl2. The assays used 0.1 μM purified TcSir2 enzyme, 10 μM Abz-Gly-Pro-AcetylLys-Ser-Gln-EDDnp peptide, and 25 μM NAD^+ cofactor. After a 15 min incubation, 12 mM nicotinamide and 0.6 mg/mL trypsin (Sigma Aldrich, Sao Paulo, Brazil, N3376) were added to stop the reaction and cleave the deacetylated peptide (30 min at 37 °C). A control was also prepared without trypsin to detect the baseline fluorescence of the uncleaved peptide. Increasing concentrations of the putative inhibitory compound prepared in DMSO were also tested under the same conditions, with controls to detect the potential effect of DMSO at a maximum concentration of 5% (v/v) on TcSir2. Fluorescence was measured using a TECAN-InfinityPro2000 plate reader.
The percentage of inhibition data was calculated using the equation: Inhibition (%) = (1 − vi/vc) × 100, where vi represents the initial rate in the presence of the putative TcSir2 inhibitor, and vc is the initial rate of the control assay containing only DMSO. IC50 values were calculated based on the percentage of inhibition and concentration of the inhibitor using non-linear regression with least squares on GraphPad Prism (v8.1, GraphPad software, La Jolla, CA, USA). […] Km and Vmax in the presence and absence of the inhibitor were obtained by fitting the initial rate and [NAD^+] into the Michaelis-Menten equation on GraphPad Prism (GraphPad Prism version v8.1, for Windows, GraphPad Software, San Diego, California USA, www.graphpad.com).
Supplementary methods – Enzyme kinetic characterisation
The enzyme kinetic assay for TcSir2, based on a previous publication1 was divided into three steps. In the first one, the recombinant TcSir2, NAD+ and the peptide substrate (Abz-Gly-Pro-AcetylLys-Ser-Gln-EDDnp) were incubated for 15 min at 37° C.
In the second step, in order to stop the reaction, 12 mM nicotinamide was added to the reaction medium. Finally in the third step trypsin was added and the reaction medium incubated for 30 min at 37° C, as previously described1. Trypsin cleaves this substrate in the linkage between lysine and serine only when the acetyl moiety had been previously […]
when lysine was acetylated2. […]
r2 = 0.99, Fig. S5a) and the peptide substrate (2.1 µM, r2 = 0.97, Fig. S5b) were determined using seven different substrate concentrations, whereas one of them was kept constant.

[2] = Mammalian cell viability assay (MTT); assay type: cell-based; details: rhesus monkey; LLCMK2 cells, MTT, 72 h; ND* = values measured but did not converge IC50 significantly; read-out: EC50 Cell Toxicity
Method: (§1) LLCMK2 cells were maintained in RPMI-1640 medium supplemented with 10% fetal bovine serum (FBS) (Gibco, Carlsbad, CA, USA), penicillin/streptomycin (100 μg.mL^−1 and 0.1 mg.mL^−1, respectively, Sigma-Aldrich, St. Louis, Mo, USA) and 2 mM L-glutamine, and treated every second day. […] All cells were maintained in humidified CO2 at 37 °C. Cells were obtained at the third passage, propagated, and used in experiments between the fourth and fifth passages. Cells were routinely checked for contamination with mycoplasma by PCR. […] The principle of this method, as described by Mosmann et al., consists in measuring the cellular viability of the enzymatic activity of […] of living cells. […] At the end of the period incubation. 50 μL MTT (Sigma-Aldrich Corp. St. Louis, MO, USA) at the concentration of 2 mg.mL^−1. After 4 h incubation, 50 μL DMSO per well was added to dissolve formazan blue crystals. The absorbance was determined at 570 nm using Biotek Synergy HT microplate spectrophotometer. The percentage of cell viability was determined from the following formula (40): Cell Viability (%) = (Treatment Absorbance)/(Control Absorbance negative) × 100.

T. cruzi amastigote = experiment: In vitro trypanocidal activity with amastigote forms (Tulahuen LacZ, CPRG); assay type: cell-based, Trypanosoma cruzi; details: intracellular amastigotes in LLCMK2 cells, ND* = values measured but did not converge IC50 significantly, read-out: IC50 T. cruzi ama
Method: In 96-well plates, cells from the LLCMK2 lineage were seeded at a concentration of 5 × 10^4 cells/mL (80 μL). The trypomastigote forms of the Tulahuen LacZ strain were added at a concentration of 5 × 10^5 cells/mL (in a total of 20 μL) and, subsequently incubated for 24 h at 37 °C with a 5% CO2 atmosphere. Next, the trypomastigote forms present in the supernatant were washed, leaving only the amastigote forms. Serial dilutions of the compounds were added (1.95 to 200 µM) and the plate was incubated for 72 h at 37 °C with a 5% CO2 atmosphere. At the end of this period, the CPRG substrate (chlorophenol red β-D-galactopyranoside, 400 μM in 0.3% Triton X-100, pH 7.4) was added and incubated for additional 6 h. After incubation, the sample’s absorbance values were measured using a spectrophotometer at 570 nm.

Chagas disease = tested on: Chagas disease; parameters: method as in PMID 29357372; details: cited from earlier work
LLCMK2 cells = experiment: Mammalian cell viability assay (MTT); assay type: cell-based; details: Macaca mulatta, LLC-MK2, Figure 4g; read-out: IC50 mammalian cell-lines
Method: as §1

[3] = substrate: NC(=O)c1ccc[n+](C2OC(COP(=O)([O-])OP(=O)(O)OCC3OC(n4cnc5c(N)ncnc54)C(O)C3O)C(O)C2O)c1; experiment: Recombinant TcSir2 activity assay (fluorescent peptide deacetylation); assay type: biochemical, Trypanosoma cruzi; details: other: TcSir2, r2 = 0.99; pH 8.0; 37.0 °C
Excerpt: The peptide substrate (Abz-Gly-Pro-AcetylLys-Ser-Gln-EDDnp, where Abz stands for ortho-aminobenzoic), based on the TcSir2 specificity, was acquired from AminoTech (São Paulo, Brazil). This substrate contains an acetyl-Lys, which is available for trypsin cleavage only when the TcSir2 deacetylates the lysine side chain. After peptide deacetylation and cleavage, the fluorescent moiety (Abz) and the EDDnp suppressor group (N-[2,4-dinitrophenyl] ethylenediamine) are separated, and fluorescence (420 nm) can occur upon excitation at 320 nm. The TcSir2 activity assays were performed at 37 °C in a 25 mM Tris-HCl buffer with pH 8 and containing 137 mM NaCl, 2.7 mM KCl, and 1 mM MgCl2. […] A control was also prepared without trypsin to detect the baseline fluorescence of the uncleaved peptide. […] Fluorescence was measured using a TECAN-InfinityPro2000 plate reader.
The percentage of inhibition data was calculated using the equation: Inhibition (%) = (1 − vi/vc) × 100, where vi represents the initial rate in the presence of the putative TcSir2 inhibitor, and vc is the initial rate of the control assay containing only DMSO. IC50 values were calculated based on the percentage of inhibition and concentration of the inhibitor using non-linear regression with least squares on GraphPad Prism (v8.1, GraphPad software, La Jolla, CA, USA). […]

[4] = Trypanosoma cruzi, LLC-MK2, 72 h

Q: Which “inhibition of NAD+-dependent deacetylase activity” value [1] does the source give for `NC(=O)c1cccnc1` [Nicotinamide, reference compound] here?
A: Its value is “inhibition”.

Q: And the IC50 (TcSir2; IC50 (TcSir2))?
A: The IC50 was 987.4 ± 0.64 µM.

Q: Which Km (TcSir2; TcSir2, r2 = 0.97, read-out: Km for the peptide substrate) does the source give for Abz-Gly-Pro-AcetylLys-Ser-Gln-EDDnp here?
A: The Km was 2100 nM.

Q: For `O=C(Cn1ccnc1[N+](=O)[O-])NCc1ccccc1` [BZN, benznidazole, reference compound], which EC50 at 72 h [2] is on record?
A: Its EC50 at 72 h is 204.1 ± 0.81 µM.

Q: And the IC50 (T. cruzi amastigote; [4])?
A: The IC50 was 4.55 ± 0.03 µM.

Q: And the IC50 (TcSir2; read-out: IC50 (TcSir2))?
A: Its IC50 is 9.33 ± 0.01 µM.

Q: What does the source list for `O=C1c2cccc3cccc(c23)C(=O)N1CCCNCCCCNCCCNCCCN1C(=O)c2cccc3cccc(c23)C1=O` [BNIP-spermidine, bisnaphthalimidopropyl-spermidine]?
A: performance in the mouse model of Chagas disease (Chagas disease): performed poorly; inhibition of NAD+-dependent deacetylase activity [1]: inhibition

Q: What does the source list for `O=C(NCc1coc(-c2ccccc2)n1)Nc1ccc(-c2noc(C(F)(F)F)n2)cc1` [CDMS-01]?
A: EC50 at 72 h [2]: 135.9 ± 0.5 µM; IC50 (LLCMK2 cells): 136 µM; IC50 (T. cruzi amastigote; [4]): 76.7 µM; IC50 (T. cruzi amastigote; 72 h): 76.68 ± 0.02 µM; Ki (TcSir2): 21.5 µM; Vmax (TcSir2; 3 µM CDMS-01): 0.29 µM; Vmax (TcSir2; 5 µM CDMS-01): 0.29 µM; Vmax (TcSir2; 10 µM CDMS-01): 0.29 µM; Vmax (TcSir2; 17 µM CDMS-01): 0.29 µM; Vmax (TcSir2; 20 µM CDMS-01): 0.29 µM; Vmax (TcSir2; 30 µM CDMS-01): 0.29 µM; Vmax (TcSir2; 40 µM CDMS-01): 0.29 µM; IC50 (TcSir2; IC50 (TcSir2)): 40 µM; inhibition mechanism (TcSir2; effect on apparent Km and Vmax for NAD+): competitive

B1: TcSir2 (Trypanosoma cruzi strain CL Brener) (protein)
chain: MNQDNANFLHVVGEPTFEALARYIERNNVTKILVMAGAGISVAAGIPDFRSPHTGIYARLGKYNLNSPTDAFSITLLRERPDVFYSIVREMDLWPGHFWPTLVHHFIKLLADEGRLLRCCTQNIDGLERASGLPMSFLVEAHGSFSTASCIECRSPYDIELASRESREGKVPHCDRCGGVVKPDVVFFGESLPDAFFNVFAEITEVELLLIMGTSLQVHPFAELAVRVRPDVPRVLFNLERVGGAMFRFPTDEPTLNSFSRNHTGNSHSSSNSSSSSSSSSSDGYSQFANHAADAGGICRDIFFPGDCQLSVRRLAEAMGLGERLALAVREGEKKRESYGACESGNTHHTHMYTLTDRK
Q: For B1, which Km [3] is on record?
A: Its Km is 25 µM.
